These results are taken from patent publication US20200363399A1, “SYSTEM AND METHOD FOR DETERMINING TUMOR INVASIVENESS” (University of Southern California, priority 2012, published 2020).

For this test, the system named is MDA-MB-231 cells. The experiment in a line: Effect of Taxol on HFFU-induced Ca2+ elevations (cell response index, CRI), live-cell calcium fluorescence imaging. The note with it: for normalized CRI (cell response index): 24 h treatment, HFFU stimulation, n=10, normalized to 0 nM = 1.0. The class given is cell-based, human. Here is the method: In order to perform live-cell fluorescence imaging of target cells stimulated by HFFU, a HFFU stimulation system was added to an inverted epifluorescence microscope (Olympus 1X70). In order to generate the highly focused ultrasound beam for single cell stimulation, a 200-MHz press-focused LiNbO3 transducer (fc: 200 MHz and bandwidth: 29%) was used. The transducer was constructed with conventional transducer fabrication procedures (Lam et al., 2013). The focal length of the transducer was 1.3 mm and the f-number (F#) was 1.6. The measured beam width of the highly focused ultrasound beam was 17 μm, which was close to the predicted value of 12 μm (=focal length×wavelength) and approximately the size of a breast cancer cell. In order to generate the 200-MHz ultrasound beam, 200-MHz sinusoidal bursts from a function generator (Stanford Research Systems, Sunnyvale, Calif.) fed into a 50-dB power amplifier (525LA, ENI, USA) were used to drive the transducer. The resultant peak-to-peak (Vpp) voltages of the bursts were adjusted to 4, 8, 16, and 32 V. The duty factor was tuned to 1%, and the pulse repetition frequency (PRF) was 1 kHz.
Live-cell fluorescence imaging was carried out on the epifluorescence microscope to monitor the cytoplasmic Ca^2+ elevations elicited by HFFU in individual MDA-MB-231, MCF-7, SKBR3, and BT-474 cells labeled with Fluo-4 AM. Light from a mercury lamp was delivered to the cells for excitation after passing through an electronic shutter, an excitation bandpass filter (488±20 nm), a dichroic mirror (cut-off wavelength: 500 nm), and a 20×objective. Fluorescence emitted from the cells was then collected by the same objective and recorded using a high-sensitivity CCD camera (ORCA-Flash2.8, Hamamatsu, Japan) after passing through an emission bandpass filter (530±20 nm).
Fluo-4 AM was used for live-cell calcium fluorescence imaging. 10^5 cells were plated on 35 mm Petri dishes and incubated in the complete medium at 37° C. for 36 h before […] Fluo-4 AM solution, diluted with the external buffer solution, was added to the dishes. After the cells were incubated at room temperature for 30 min, the cells were thoroughly washed with external buffer solution and then time-lapse fluorescence imaging was initiated after the target cells were positioned at the beam focus. Fluorescence images were acquired at 1 Hz for t=300 s (exposure time: 300 ms), as the HFFU was switched on and off at t=50 s and t=200 s, respectively.
The program was written to obtain the mean normalized maximum calcium elevation value and a cell responding ratio from segmented images of target cells, semi-automatically. A cell responding ratio=the number of cells responding to HFFU/the number of total cells subjected to HFFU. More specifically, after fluorescence images of cells acquired at different time-points (0-300 s, step: 1 s) were averaged, the target cell receiving HFFU in the averaged image was selected and segmented by Otsu's method (Otsu, 1979), followed by the calculation of mean fluorescence intensities in the segmented regions of each image obtained at the indicated time-points. Temporal changes of the mean fluorescence in the target cell were then analyzed to determine whether calcium elevations were elicited by HFFU in the cell. The calcium elevation was here measured as the increase in the fluorescence intensity. […]

Each structure is given as a SMILES string.

As for `CC(=O)O[C@H]1C(=O)[C@@]2(C)[C@H]([C@H](OC(=O)c3ccccc3)[C@]3(O)C[C@H](OC(=O)[C@H](O)[C@@H](NC(=O)c4ccccc4)c4ccccc4)C(C)=C1C3(C)C)[C@]1(OC(C)=O)CO[C@@H]1C[C@@H]2O` [Taxol], under “1 nM Taxol”, the “reduction of the CRI relative to the untreated cells” value is recorded as −50% and the “normalized CRI (cell response index)” value was found to be 0.52. For the setting “10 nM Taxol”, the “normalized CRI (cell response index)” value is listed as 0.29. Under “100 nM Taxol”, the “CRI remaining (reduced to)” value is 0% and the “normalized CRI (cell response index)” value is recorded as 0.
